How the values were obtained:
[1] = tested on: Cavia porcellus; test: Antitussive activity in ip dosed Dunkin-Hartley guinea pig assessed as inhibition of citric acid-induced cough administered 30 mins before citric acid challenge; assay type: functional
[2] = tested on: Cavia porcellus; test: Antitussive activity in Dunkin-Hartley guinea pig assessed as inhibition of citric acid-induced cough at 100 mg/kg, ip administered 30 mins before citric acid challenge; assay type: functional; conditions: route intraperitoneal

Row | SMILES | Activity [1] | ED50 [1] | inhibition in vivo at 100 mg/kg [2]
1 | CC[C@H]1[C@@H]2c3ccc([C@@H]4C[C@H](C)C(=O)O4)n3CCC[C@H]2O[C@]12C=C(C)C(=O)O2 [BISDEHYDROSTEMONININE] | Dose-dependent effect | 188 µmol/kg | 90%
2 | CC[C@@H]1[C@H]2CCCCN3[C@H]2[C@@H](C[C@H]3[C@@H]2C[C@H](C)C(=O)O2)[C@H]2[C@@H]1OC(=O)[C@H]2C [NEOTUBEROSTEMONINE] | – | 66 µmol/kg | –

Source: ChEMBL document CHEMBL1142605, “Stemoninines from the roots of Stemona tuberosa” (2006)
